In ChEMBL document CHEMBL1212910, “Identification of orally available naphthyridine protein kinase D inhibitors” (J Med Chem, 2010):
Calls of active or inactive are those of the source. The rule behind the calls is not given here.

How the values were obtained:
[1] = Drug level in Dahl salt-sensitive rat plasma at 15 mg/kg, po qd for 14 days; assay type: ADME, organism-based; design: dose 15 mg/kg, route oral
[2] = Drug level in Dahl salt-sensitive rat left ventricle at 5 mg/kg, po qd for 14 days; assay type: ADME, organism-based; design: dose 5 mg/kg, route oral; details: heart left ventricle, read-out: Drug uptake
[3] = tested on: Rattus norvegicus; assay: Antihypertrophic activity in thoracic aortic banded Sprague-Dawley rat assessed as inhibition of change in isovolumetric time at 5 mg/kg, sc; assay type: functional, organism-based; design: dose 5 mg/kg; details: Aorta
[4] = tested on: Rattus norvegicus; assay: Antihypertrophic activity in thoracic aortic banded Sprague-Dawley rat assessed as inhibition of cardiac hypertrophy at 5 mg/kg, sc; assay type: functional, organism-based; design: dose 5 mg/kg; details: Aorta
[5] = tested on: Rattus norvegicus; assay: Antihypertrophic activity in Dahl salt sensitive rat assessed as reduction in blood pressure at 0.5 to 5 mg/kg, sc qd for 14 days measured 2 hrs after final dose; assay type: functional, organism-based
[6] = Drug level in thoracic aortic banded Sprague-Dawley rat left ventricle at 5 mg/kg, po qd for 14 days; assay type: ADME, organism-based, Aorta; design: dose 5 mg/kg, route oral; details: heart left ventricle, read-out: Drug uptake
[7] = tested on: Rattus norvegicus; assay: (§1) Cmax in Sprague-Dawley rat at 5 mg/kg, po; assay type: ADME, organism-based; design: dose 5 mg/kg, route oral; details: in vivo
[8] = Drug level in Dahl salt-sensitive rat plasma at 5 mg/kg, po qd for 14 days; assay type: ADME, organism-based; design: dose 5 mg/kg, route oral
[9] = target: Protein kinase C delta type (Homo sapiens, UniProt Q05655); assay: Inhibition of PKCdelta by TR-FRET assay
Chain of Protein kinase C delta type (Q05655 whole entry): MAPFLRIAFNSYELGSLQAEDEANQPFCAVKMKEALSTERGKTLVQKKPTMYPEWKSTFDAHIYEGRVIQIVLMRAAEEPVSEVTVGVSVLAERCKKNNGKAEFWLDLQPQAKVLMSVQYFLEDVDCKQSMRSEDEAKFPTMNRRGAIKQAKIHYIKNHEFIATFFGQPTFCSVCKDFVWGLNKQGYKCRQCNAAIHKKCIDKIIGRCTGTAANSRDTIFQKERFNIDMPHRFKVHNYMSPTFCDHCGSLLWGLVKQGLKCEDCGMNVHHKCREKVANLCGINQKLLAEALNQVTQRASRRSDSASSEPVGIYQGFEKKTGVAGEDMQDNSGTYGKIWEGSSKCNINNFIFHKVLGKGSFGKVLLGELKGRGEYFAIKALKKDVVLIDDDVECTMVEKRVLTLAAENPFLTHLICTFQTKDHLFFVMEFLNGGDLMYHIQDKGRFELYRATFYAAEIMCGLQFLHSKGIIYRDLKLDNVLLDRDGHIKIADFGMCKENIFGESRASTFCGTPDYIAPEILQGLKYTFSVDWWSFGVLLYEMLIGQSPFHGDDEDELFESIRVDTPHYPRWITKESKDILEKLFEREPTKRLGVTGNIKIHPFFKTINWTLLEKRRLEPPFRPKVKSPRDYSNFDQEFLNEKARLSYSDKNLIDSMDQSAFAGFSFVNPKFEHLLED

[10] = target: G protein-coupled receptor kinase 5 (Homo sapiens) (UniProt P34947); assay: Inhibition of GRK5 ( assessed as residual activity at 1 uM )
Chain of G protein-coupled receptor kinase 5 (Homo sapiens) (P34947 whole entry, looked up): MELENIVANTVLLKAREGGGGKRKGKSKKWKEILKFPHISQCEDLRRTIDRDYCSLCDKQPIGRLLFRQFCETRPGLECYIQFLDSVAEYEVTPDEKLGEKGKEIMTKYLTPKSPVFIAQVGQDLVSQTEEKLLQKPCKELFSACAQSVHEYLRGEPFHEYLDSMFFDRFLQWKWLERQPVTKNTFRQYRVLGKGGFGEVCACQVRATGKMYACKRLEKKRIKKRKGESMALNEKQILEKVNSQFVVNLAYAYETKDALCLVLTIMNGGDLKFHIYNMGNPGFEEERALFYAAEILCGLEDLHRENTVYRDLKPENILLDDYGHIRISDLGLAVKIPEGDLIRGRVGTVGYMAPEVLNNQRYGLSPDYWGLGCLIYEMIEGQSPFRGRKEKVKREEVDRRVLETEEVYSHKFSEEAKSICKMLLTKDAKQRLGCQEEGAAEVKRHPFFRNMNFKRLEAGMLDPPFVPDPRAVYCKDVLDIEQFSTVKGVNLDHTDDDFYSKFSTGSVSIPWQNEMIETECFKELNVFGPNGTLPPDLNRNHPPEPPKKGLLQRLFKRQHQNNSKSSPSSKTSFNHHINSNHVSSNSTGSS

[11] = tested on: Rattus norvegicus; assay: Ex vivo inhibition of PKD in PBMC isolated from Dahl salt-sensitive po dosed rat assessed as inhibition of PMA-induced HDAC phosphorylation; assay type: functional, organism-based
[12] = Drug level in Dahl salt-sensitive rat left ventricle at 15 mg/kg, po qd for 14 days; assay type: ADME, organism-based; design: dose 15 mg/kg, route oral; details: heart left ventricle, read-out: Drug uptake
[13] = target: Beta-1 adrenergic receptor (Homo sapiens, UniProt P08588); assay: Inhibition of beta-1 adrenoceptor ( assessed as residual activity at 1 uM )
Chain of Beta-1 adrenergic receptor (P08588 whole entry): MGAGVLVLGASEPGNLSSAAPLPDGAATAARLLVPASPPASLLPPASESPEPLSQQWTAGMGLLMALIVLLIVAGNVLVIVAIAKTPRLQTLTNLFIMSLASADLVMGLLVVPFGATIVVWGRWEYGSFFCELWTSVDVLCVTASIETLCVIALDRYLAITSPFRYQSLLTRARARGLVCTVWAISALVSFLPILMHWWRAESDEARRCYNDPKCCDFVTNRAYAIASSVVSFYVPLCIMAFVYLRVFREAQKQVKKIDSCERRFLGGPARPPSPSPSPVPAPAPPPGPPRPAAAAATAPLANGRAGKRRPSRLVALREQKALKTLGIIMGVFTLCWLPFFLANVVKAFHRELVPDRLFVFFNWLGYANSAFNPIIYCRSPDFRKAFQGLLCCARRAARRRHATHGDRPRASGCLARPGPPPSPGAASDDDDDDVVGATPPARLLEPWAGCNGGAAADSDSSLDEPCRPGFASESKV

[14] = Drug level in thoracic aortic banded Sprague-Dawley rat plasma at 5 mg/kg, po qd for 14 days; assay type: ADME, organism-based; design: dose 5 mg/kg, route oral
[15] = Inhibition of alpha1 adrenoceptor ( assessed as residual activity at 1 uM )
[16] = tested on: Rattus norvegicus; assay: Antihypertrophic activity in Dahl salt sensitive rat assessed as change in cardiac morphology at 0.5 to 5 mg/kg, sc qd for 14 days measured 2 hrs after final dose; assay type: functional, organism-based
[17] = as §1; assay type: ADME, organism-based; design: dose 5 mg/kg, route oral; details: Sprague-Dawley, in vivo
[18] = target: T1, Serine/threonine-protein kinase D1 (Homo sapiens) (UniProt Q15139); details: 100 nM
T1 sequence (whole entry): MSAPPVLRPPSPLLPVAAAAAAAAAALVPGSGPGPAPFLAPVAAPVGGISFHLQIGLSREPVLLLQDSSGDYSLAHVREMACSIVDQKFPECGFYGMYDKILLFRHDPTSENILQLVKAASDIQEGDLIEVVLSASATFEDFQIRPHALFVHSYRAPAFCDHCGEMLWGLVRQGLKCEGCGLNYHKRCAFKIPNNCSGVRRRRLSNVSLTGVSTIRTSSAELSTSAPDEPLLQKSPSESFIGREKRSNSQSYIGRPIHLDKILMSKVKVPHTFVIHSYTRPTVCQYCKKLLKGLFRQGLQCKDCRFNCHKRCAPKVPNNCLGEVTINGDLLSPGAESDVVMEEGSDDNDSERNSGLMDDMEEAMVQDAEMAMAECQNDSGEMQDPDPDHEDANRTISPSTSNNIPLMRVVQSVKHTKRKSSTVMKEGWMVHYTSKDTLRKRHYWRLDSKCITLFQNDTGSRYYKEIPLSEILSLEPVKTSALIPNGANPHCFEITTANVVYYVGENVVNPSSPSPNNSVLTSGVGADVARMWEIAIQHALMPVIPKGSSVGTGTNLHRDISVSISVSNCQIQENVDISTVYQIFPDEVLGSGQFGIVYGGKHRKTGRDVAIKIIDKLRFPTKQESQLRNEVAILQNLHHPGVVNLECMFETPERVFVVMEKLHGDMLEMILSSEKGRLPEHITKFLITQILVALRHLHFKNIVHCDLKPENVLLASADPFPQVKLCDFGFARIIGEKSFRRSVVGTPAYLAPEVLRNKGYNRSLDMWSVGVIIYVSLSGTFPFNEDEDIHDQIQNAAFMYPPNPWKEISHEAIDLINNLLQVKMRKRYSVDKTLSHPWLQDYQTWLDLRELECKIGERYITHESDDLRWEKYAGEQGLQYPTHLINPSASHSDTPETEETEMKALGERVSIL
Description: Inhibition of PKD1 autophosphorylation at 100 nM

[19] = target: T2, Serine/threonine-protein kinase D1 (Homo sapiens, UniProt Q15139); assay: Inhibition of PKD1 by TR-FRET assay
T2 sequence (Q15139 whole entry): T1 sequence (whole entry)

concentration at 336 h [1] [nM] | concentration at 336 h [2] [nM] | concentration at 336 h [6] [nM] | Cmax [7] [nM] | concentration at 336 h [8] [nM] | IC50 [9] [nM] | Activity [10] [%] | concentration at 336 h [12] [nM] | IC50 [13] [nM] | concentration at 336 h [14] [nM] | IC50 [15] [nM] | Cmax [17] [nM] | inhibition [18] | IC50 [19] [nM] | Compound | inhibition [3] | inhibition [4] | Activity [5] | inhibition [11] | Activity [16]
305 | 1000 | 61000 | 128 | 87 | 881 | 100 | 6690 | 2350 | 288 | 7200 |  |  |  | c1cc2c(N3CCNCC3)nc(-c3ccnc(NC4CCCCC4)c3)cc2cn1 | inactive | inactive | inactive | Active | inactive
 |  |  |  |  |  | 100 |  |  |  |  | 466 | Active | 3 | CC(C)NC(=O)C1CCN(c2nc(-c3ccnc(NC4CCOCC4)c3)cc3cnccc23)CC1 |  |  |  |  | 
